The EC50 is the concentration at which the effect is half-maximal. Read a high EC50 as lower potency in that assay.

T1 sequence (P43220 24-463): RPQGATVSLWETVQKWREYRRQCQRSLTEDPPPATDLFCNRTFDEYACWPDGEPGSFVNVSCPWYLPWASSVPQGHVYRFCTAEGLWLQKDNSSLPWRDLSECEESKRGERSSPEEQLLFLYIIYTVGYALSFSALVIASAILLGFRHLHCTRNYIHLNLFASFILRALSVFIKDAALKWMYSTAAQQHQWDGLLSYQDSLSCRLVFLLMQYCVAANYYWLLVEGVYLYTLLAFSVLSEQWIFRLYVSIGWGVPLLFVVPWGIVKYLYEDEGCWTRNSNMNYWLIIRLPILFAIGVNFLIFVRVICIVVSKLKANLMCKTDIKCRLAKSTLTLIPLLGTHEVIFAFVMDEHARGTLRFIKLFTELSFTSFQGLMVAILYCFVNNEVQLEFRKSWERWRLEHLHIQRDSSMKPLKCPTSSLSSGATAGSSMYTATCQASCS

The assay has as its target T1, human GLP-1R receptor (Homo sapiens, UniProt P43220).
T1 construct: expressed in transfected cells
Briefly: GLP-1R low expression cell assay (cAMP TR-FRET, CHO-K1_hGLP-1Rlow_clone10). As to conditions: CHO-K1_hGLP-1Rlow_clone10 cells, percent activation relative to control GLP-1 peptide. In kind it is cell-based. A digest of the protocol: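 CHO-K1 cells stably expressing low surface levels of human GLP-1R were exposed to 10-point, 3-fold compound dilutions for 30 min at 25 °C, then cAMP was read by TR-FRET (Eu-cAMP/ULight-anti-cAMP, 15 min). EC50 came from Hill fits of percent activation relative to a GLP-1 control agonist, duplicate wells.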
Consider `N#Cc1ccc(COc2cccc(N3CCN(Cc4nc5ccc(C(=O)O)cc5n4Cc4cncs4)[C@@H]4C[C@@H]43)n2)c(F)c1` (single isomer, unassigned) [Compound 1, 2-((5-(6-((4-cyano-2-fluorobenzyl)oxy)pyridin-2-yl)-2,5-diazabicyclo[4.1.0]heptan-2-yl)methyl)-1-(thiazol-5-ylmethyl)-1H-benzo[d]imidazole-6-carboxylic Acid], for which the EC50 is less than 5 nM.
`N#Cc1ccc(COc2cccc(N3CCN(Cc4nc5ccc(C(=O)O)cc5n4Cc4cncs4)[C@H]4C[C@H]43)n2)c(F)c1` (single isomer, unassigned) [Compound 2, 2-((5-(6-((4-Cyano-2-fluorobenzyl)oxy)pyridin-2-yl)-2,5-diazabicyclo[4.1.0]heptan-2-yl)methyl)-1-(thiazol-5-ylmethyl)-1H-benzo[d]imidazole-6-carboxylic Acid] registered an EC50 of 50 to 100 nM.
Next, `N#Cc1ccc(COc2cccc([C@H]3CCN(Cc4nc5ccc(C(=O)O)cc5n4Cc4cncs4)[C@@H]4C[C@H]34)n2)c(F)c1` (single isomer, unassigned) [Compound 4, 2-((5-(6-((4-Cyano-2-fluorobenzyl)oxy)pyridin-2-yl)-2-azabicyclo[4.1.0]heptan-2-yl)methyl)-1-(thiazol-5-ylmethyl)-1H-benzo[d]imidazole-6-carboxylic Acid]: less than 5 nM; `N#Cc1ccc(COc2cccc([C@@H]3CCN(Cc4nc5ccc(C(=O)O)cc5n4Cc4cncs4)[C@@H]4C[C@@H]43)n2)c(F)c1` (single isomer, unassigned) [Compound 5, 2-((5-(6-((4-Cyano-2-fluorobenzyl)oxy)pyridin-2-yl)-2-azabicyclo[4.1.0]heptan-2-yl)methyl)-1-(thiazol-5-ylmethyl)-1H-benzo[d]imidazole-6-carboxylic Acid]: 5 to 50 nM; `N#Cc1ccc(COc2cccc([C@H]3CCN(Cc4nc5ccc(C(=O)O)cc5n4Cc4cncs4)[C@H]4C[C@@H]34)n2)c(F)c1` (single isomer, unassigned) [Compound 14, 2-((5-(6-((4-Cyano-2-fluorobenzyl)oxy)pyridin-2-yl)-2-azabicyclo[4.1.0]heptan-2-yl)methyl)-1-(thiazol-5-ylmethyl)-1H-benzo[d]imidazole-6-carboxylic Acid]: 5 to 50 nM.
The same measure for `N#Cc1ccc(COc2cccc([C@@H]3CCN(Cc4nc5ccc(C(=O)O)cc5n4Cc4cncs4)[C@H]4C[C@@H]34)n2)c(F)c1` (single isomer, unassigned) [Compound 15, 2-((5-(6-((4-Cyano-2-fluorobenzyl)oxy)pyridin-2-yl)-2-azabicyclo[4.1.0]heptan-2-yl)methyl)-1-(thiazol-5-ylmethyl)-1H-benzo[d]imidazole-6-carboxylic Acid]: 5 to 50 nM; for `N#Cc1ccc(COc2cccc(N3CCN(Cc4nc5ccc(C(=O)O)cc5n4C[C@@H]4CCO4)[C@@H]4C[C@@H]43)n2)c(F)c1` (single isomer, unassigned) [Compound 43]: less than 5 nM.
Next, `CC1(c2ccc(C#N)cc2F)Oc2cccc(C3CCN(Cc4nc5ccc(C(=O)O)cc5n4Cc4cncs4)CC3)c2O1` (centres unmarked) [Compound 18]: less than 5 nM.
Turning to `N#Cc1ccc(COc2ccnc(N3CCN(Cc4nc5ccc(C(=O)O)cc5n4Cc4cncs4)[C@@H]4C[C@@H]43)n2)c(F)c1` [Compound 20, 2-((5-(4-((4-Cyano-2-fluorobenzyl)oxy)pyrimidin-2-yl)-2,5-diazabicyclo[4.1.0]heptan-2-yl)methyl)-1-(thiazol-5-ylmethyl)-1H-benzo[d]imidazole-6-carboxylic Acid], the EC50 was 5 to 50 nM.
Compound `CC1(c2ccc(C#N)cc2F)Oc2cccc(N3CCN(Cc4nc5ccc(C(=O)O)cc5n4CC4(C#N)CC4)C4CC43)c2O1` (centres unmarked) [Compound 40, 2-((5-(2-(4-Cyano-2-fluorophenyl)-2-methylbenzo[d][1,3]dioxol-4-yl)-2,5-diazabicyclo[4.1.0]heptan-2-yl)methyl)-1-((1-cyanocyclopropyl)methyl)-1H-benzo[d]imidazole-6-carboxylic Acid] gave an EC50 of less than 5 nM.
The same measure for `CCn1nncc1Cn1c(CN2CCN(c3cccc(OCc4ccc(C#N)cc4F)n3)[C@H]3C[C@H]32)nc2ccc(C(=O)O)cc21` [Compound 45, 2-((5-(6-((4-Cyano-2-fluorobenzyl)oxy)pyridin-2-yl)-2,5-diazabicyclo[4.1.0]heptan-2-yl)methyl)-1-((1-ethyl-1H-1,2,3-triazol-5-yl)methyl)-1H-benzo[d]imidazole-6-carboxylic Acid]: less than 5 nM.

These data come from patent US12410163B2, “Compounds as GLP-IR agonists” (Terns Pharmaceuticals, Inc., priority 2022, dated 2025).
